US20050075400A1, “Polymorphic forms of nateglinide” (priority 2002, published 2005)
Where two headings read alike, the source gives them in different places.

Columns and labels:
[1] = Thermal stability / form transformation on heating or drying (XRPD); type: physicochemical; details: for form obtained upon drying / heating: heating under ambient or reduced pressure, generally about 40-80° C.; for form after heating at 120° C.: 1 h, atmospheric pressure; for form after heating at 120° C. / form after heating at about 100° C.: XRPD; for form after heating at about 100° C.: 100° C. oil bath, 8.5 h
Procedure: The various crystalline forms are related to each other in that drying of one form may result in a transformation to another form, namely nateglinide Forms A, B, D, E, F, G, H, I, J, K, L, M, N, Q, S, T, V, Z, α, β, δ, γ, ε, θ and Ω. The drying is carried out by heating a sample under ambient or reduced pressure. Generally, a preferred temperature is from about 40° C. to about 80° C., more preferably under reduced pressure. […] The term “stable” as used herein refers to a polymorphic change of less than about 5% by weight, more preferably less than about 2%, particularly for Form δ.
Sample of nateglinide form U (˜1 g) was introduced into a 6-gram vial and heated over 8.5 h in a 100° C. oil bath. The vial were extracted from the bath.
Sample of nateglinide form U (˜0.5 g) was heated to 120° C. for 1 h in an atmospheric pressure.
Sample of nateglinide form δ (˜0.5 g) was heated to 120° C. for 1 h in an atmospheric pressure.

[2] = cited from earlier work
[3] = Polymorphic stability on storage at room temperature for 24 h (XRPD); type: physicochemical; details: for crystal form after storage at RT for 24 h: room temperature and pressure, 24 h (about a day), open bottle, XRPD
Procedure: The various crystalline forms are also analyzed by Thermal Gravimetric Analysis (TGA). […] In contrast to the above listed forms, TGA profiles of forms L, P, U, α, δ and σ show no significant weight loss. These polymorphic forms of nateglinide are free of bound solvents, i.e., less than about 2% LOD. Table II lists the solvents used for the preparation for nateglinide solvated forms, as well as LOD values based on TGA analysis.
Storage at room temperature and pressure may also cause a transition of one form to another.
X-Ray diffraction was performed on X-Ray powder diffractometer, Scintag variable goniometer, Cu-tube, solid state detector. Sample holder: A round standard aluminum sample holder with round zero background quartz plate.
The sample was put on the sample holder and immediately analyzed as is. Scanning parameters: Range: 2-40 deg 2θ, Continuos Scan, Rate: 3 deg./min.

[4] = demonstrated by DSC; cited from earlier work
[5] = Stability at about 40° C. and about 75% relative humidity; type: physicochemical; details: about 40° C., relative humidity about 75%
Procedure: Crystalline Form δ is stable at a temperature of about 40° C. and a relative humidity of about 75% for at least about 3 months.

[6] = Absorption of solvent vapors by nateglinide Form H; type: physicochemical; details: for Δ (overweight): room temperature, 4 d
Procedure: Nateglinide (3.50 g) was added to a polypropylene can and weighed. The can was introduced into a bigger polypropylene container containing a solvent, and stored at room temperature. The can was removed from the container and weighed (Wfinal). The can content was divided into 2 portions. One portion was dried at a temperature of 55° C. and a pressure of 20-30 mmHg to constant weight (±0.01 g).

## CC(C)[C@H]1CC[C@H](C(=O)N[C@H](Cc2ccccc2)C(=O)O)CC1 [Form O, nateglinide]
[1]
  thermal stability (conversion to another form upon heating): somewhat stable

## CC(C)[C@H]1CC[C@H](C(=O)N[C@H](Cc2ccccc2)C(=O)O)CC1 [acetonitrile solvate of Form Epsilon, nateglinide]
[1]
  form obtained upon drying / heating: Form B

## CC(C)[C@H]1CC[C@H](C(=O)N[C@H](Cc2ccccc2)C(=O)O)CC1 [Form Ω, nateglinide]
[1]; 50° C., vacuum oven, overnight, XRD
  form after drying in a vacuum oven: mixture of Form omega and Form Z
[1]
  form obtained upon drying / heating: convert to Form B

## CC(C)[C@H]1CC[C@H](C(=O)N[C@H](Cc2ccccc2)C(=O)O)CC1 [nitromethane solvates of Form Epsilon, nateglinide]
[1]
  form obtained upon drying / heating: Forms H or P

## CC(C)[C@H]1CC[C@H](C(=O)N[C@H](Cc2ccccc2)C(=O)O)CC1 [nateglinide, (−)—N-(trans-4-isopropylcyclohexanecarbonyl)-D-Phenylalanine]
[2]; in acetonitrile
  solubility: sparingly soluble
[2]; in chloroform
  solubility: freely soluble
[2]; in ethanol
  solubility: freely soluble
[2]; in ether
  solubility: soluble
[2]; in methanol
  solubility: freely soluble
[2]; in octanol
  solubility: sparingly soluble
[2]; in water
  solubility: practically insoluble

## CC(C)[C@H]1CC[C@H](C(=O)N[C@H](Cc2ccccc2)C(=O)O)CC1 [Form Z, nateglinide]
[1]
  form obtained upon drying / heating: convert to Form B

## CC(C)[C@H]1CC[C@H](C(=O)N[C@H](Cc2ccccc2)C(=O)O)CC1 [Form L, nateglinide]
[1]
  thermal stability (conversion to another form upon heating): thermally stable

## CC(C)[C@H]1CC[C@H](C(=O)N[C@H](Cc2ccccc2)C(=O)O)CC1 [Form β, nateglinide]
[1]
  form obtained upon drying / heating: convert to Form B

## CC(C)[C@H]1CC[C@H](C(=O)N[C@H](Cc2ccccc2)C(=O)O)CC1 [Form M, nateglinide]
[1]
  form obtained upon drying / heating: Form L

## CC(C)[C@H]1CC[C@H](C(=O)N[C@H](Cc2ccccc2)C(=O)O)CC1 [Form E, nateglinide]
[1]
  form obtained upon drying / heating: convert to Form B

## CC(C)[C@H]1CC[C@H](C(=O)N[C@H](Cc2ccccc2)C(=O)O)CC1 [Form A, nateglinide]
[3]
  crystal form after storage at RT for 24 h: partially converts to Form B
[3]; listed as A
  crystal form after storage at RT for 24 h: conversion to Form B
[1]
  form obtained upon drying / heating: convert to Form B
[1]; listed as Form a
  form obtained upon drying / heating: Form S

## CC(C)[C@H]1CC[C@H](C(=O)N[C@H](Cc2ccccc2)C(=O)O)CC1 [Form J, nateglinide]
[3]; room temperature, overnight
  XRD pattern after storage at RT for overnight: XRD pattern slightly
[1]
  form obtained upon drying / heating: convert to Form B

## CC(C)[C@H]1CC[C@H](C(=O)N[C@H](Cc2ccccc2)C(=O)O)CC1 [Form Y, nateglinide]
[1]
  thermal stability (conversion to another form upon heating): somewhat stable

## CC(C)[C@H]1CC[C@H](C(=O)N[C@H](Cc2ccccc2)C(=O)O)CC1 [Form B, nateglinide]
[1]
  thermal stability (conversion to another form upon heating): thermally stable
[4]
  stability during grinding: unstable and susceptible to change during grinding

## CC(C)[C@H]1CC[C@H](C(=O)N[C@H](Cc2ccccc2)C(=O)O)CC1 [Form F, nateglinide]
[1]
  form obtained upon drying / heating: convert to a mixture of Form B and G

## CC(C)[C@H]1CC[C@H](C(=O)N[C@H](Cc2ccccc2)C(=O)O)CC1 [Form α, nateglinide]
[1]
  thermal stability (conversion to another form upon heating): somewhat stable
  form obtained upon drying / heating: convert to Form B

## CC(C)[C@H]1CC[C@H](C(=O)N[C@H](Cc2ccccc2)C(=O)O)CC1 [Form T, nateglinide]
[3]
  crystal form after storage at RT for 24 h: converts to Form E
[3]; listed as T
  crystal form after storage at RT for 24 h: Form E
[1]
  form obtained upon drying / heating: convert to a mixture of Form B and G

## CC(C)[C@H]1CC[C@H](C(=O)N[C@H](Cc2ccccc2)C(=O)O)CC1 [Form N, nateglinide]
[1]
  form obtained upon drying / heating: Form L

## CC(C)[C@H]1CC[C@H](C(=O)N[C@H](Cc2ccccc2)C(=O)O)CC1 [Form σ, nateglinide]
[1]
  thermal stability (conversion to another form upon heating): thermally stable

## CC(C)[C@H]1CC[C@H](C(=O)N[C@H](Cc2ccccc2)C(=O)O)CC1 [Form I, nateglinide]
[3]
  crystal form after storage at RT for 24 h: converts to Form L
[3]; listed as I
  crystal form after storage at RT for 24 h: Form L

## CC(C)[C@H]1CC[C@H](C(=O)N[C@H](Cc2ccccc2)C(=O)O)CC1 [Form ε, nateglinide]
[1]
  form obtained upon drying / heating: Form H

## CC(C)[C@H]1CC[C@H](C(=O)N[C@H](Cc2ccccc2)C(=O)O)CC1 [Form δ, nateglinide]
[1]
  thermal stability (conversion to another form upon heating): somewhat stable
  form after heating at 120° C.: results in Form B
  form obtained upon drying / heating: convert to Form B
[1]; 60 mmHg vacuum, 60° C., 6 hours
  polymorph after drying in a stirred reactor: remained delta form
[1]; 60° C., overnight (at least about 8 hours)
  stability when heated to 60° C. overnight: stable
[1]; listed as form δ
  form after heating at 120° C.: Form B
[1]; 4 hours at 60° C.
  polymorphic form after drying in a fluidized bed drier: delta
[5]
  time for which the crystalline form is stable: at least 3 months

## CC(C)[C@H]1CC[C@H](C(=O)N[C@H](Cc2ccccc2)C(=O)O)CC1 [Form C, nateglinide]
[1]
  form obtained upon drying / heating: convert to Form B

## CC(C)[C@H]1CC[C@H](C(=O)N[C@H](Cc2ccccc2)C(=O)O)CC1 [Form G, nateglinide]
[1]
  form obtained upon drying / heating: convert to Form B

## CC(C)[C@H]1CC[C@H](C(=O)N[C@H](Cc2ccccc2)C(=O)O)CC1 [Form V, nateglinide]
[1]
  form obtained upon drying / heating: Form H

## CC(C)[C@H]1CC[C@H](C(=O)N[C@H](Cc2ccccc2)C(=O)O)CC1 [Form H, nateglinide]
[1]
  thermal stability (conversion to another form upon heating): thermally stable
[6]; Acetone vapors, 3.50 g NTG
  Δ (overweight): 0.08
[6]; DCM vapors, 3.49 g NTG
  Δ (overweight): 0.04
[6]; EtOH vapors, 3.50 g NTG
  Δ (overweight): 0.52
[6]; MeOH vapors, 3.50 g NTG
  Δ (overweight): 0.18
[6]; Water vapors, 3.50 g NTG
  Δ (overweight): 0.02
[6]; vapors of water and acetone
  stability in the presence of solvent vapors: stable

## CC(C)[C@H]1CC[C@H](C(=O)N[C@H](Cc2ccccc2)C(=O)O)CC1 [Form θ, nateglinide]
[1]
  form obtained upon drying / heating: convert to Form B

## CC(C)[C@H]1CC[C@H](C(=O)N[C@H](Cc2ccccc2)C(=O)O)CC1 [Form Q, nateglinide]
[3]
  crystal form after storage at RT for 24 h: converts to Form Y
[3]; listed as Q
  crystal form after storage at RT for 24 h: Form Y, which contains
[1]
  form obtained upon drying / heating: convert to Form B

## CC(C)[C@H]1CC[C@H](C(=O)N[C@H](Cc2ccccc2)C(=O)O)CC1 [Form U, nateglinide]
[1]
  thermal stability (conversion to another form upon heating): thermally stable
  form after heating at about 100° C.: does not undergo a transition
  form after heating at 120° C.: Form U
[1]; listed as form U
  form after heating at about 100° C.: Form U
